What was measured:
A431 = assay: Anti-proliferative activity in other cancer cell lines (MTT); type: cell-based; settings: Homo sapiens, A-431, 96 h, Skin, 4 days
Description: (§1) HeLa cells (American Type Culture Collection: ATCC, USA), a human cervical cancer cell line, were seeded in a 96-well plate at 3×10^3 cells/well, and the cells were then treated with compounds of Examples or Comparative Example according to the present invention and grown for 2 days. Then, MTT (3-(4,5-dimethylthiazol-2-yl)-2,5-diphenyltetrazolium bromide) reagent was added at 10 μL/well. After 2 hours, absorbance was measured at “OD 450” and statistical values were obtained using Prism™6 program. The data shown in Table below are mean values of results obtained by repeating the analysis twice.
(§2) Specifically, various cancer cell lines were cultured in a microtiter plate (1-3×10^3 cells/well), treated with the compound of Example 4 according to the present invention, and cultured for 4 days. Cytotoxicity was tested by MTT assay in the same manner as in Experimental Example 1-1, and IC50 was obtained by a log-dose response curve. The data shown in Table below are mean values of results obtained by repeating the analysis three times.

A549 = assay: as above; type: cell-based; settings: Homo sapiens, 96 h, A549 (line stands under Liver), 4 days
Description: as §1, §2

HCT 116 = assay: as above; type: cell-based; settings: Homo sapiens, 96 h, Colon, 4 days
Description: as §1, §2

K562 = assay: as above; type: cell-based; settings: Homo sapiens, 96 h, Marrow (leukemia), 4 days
Description: as §1, §2

MDA-MB-468 = assay: as above; type: cell-based; settings: Homo sapiens, 96 h, Breast, 4 days
Description: as §1, §2

NCI-H125 = assay: as above; type: cell-based; settings: Homo sapiens, 96 h, Lung, 4 days
Description: as §1, §2

NCI-H1299 = assay: as above; type: cell-based; settings: Homo sapiens, 96 h, Lung, 4 days
Description: as §1, §2

NCI-H226 = assay: as above; type: cell-based; settings: Homo sapiens, 96 h, Lung, 4 days
Description: as §1, §2

PC3 = assay: as above; type: cell-based; settings: Homo sapiens, PC-3, 96 h, Prostate, 4 days
Description: as §1, §2

RPMI-8226 = assay: as above; type: cell-based; settings: Homo sapiens, 96 h, Marrow (leukemia), 4 days
Description: as §1, §2

SK-N-MC = assay: as above; type: cell-based; settings: Homo sapiens, 96 h, Brain, 4 days
Description: as §1, §2

SNU 484 = assay: as above; type: cell-based; settings: 96 h, Stomach, 4 days
Description: as §1, §2

U-2-OS = assay: as above; type: cell-based; settings: Homo sapiens, U2OS, 96 h, Bone, 4 days
Description: as §1, §2

U373MG = assay: as above; type: cell-based; settings: Homo sapiens, U373 MG, 96 h, Brain, 4 days
Description: as §1, §2

MEF (mouse) = assay: Cytotoxicity in normal cells (MTT); type: cell-based; settings: 96 h, Normal cell, 4 days
K562/ADR = assay: Anti-proliferative activity test in cancer cells exhibiting multidrug resistance (MTT); type: cell-based
Description: (§3) HeLa cells (American Type Culture Collection: ATCC, USA), a human cervical cancer cell line, were seeded in a 96-well plate at 3×10^3 cells/well, and the cells were then treated with compounds of Examples or Comparative Example according to the present invention and grown for 2 days. Then, MTT (3-(4,5-dimethylthiazol-2-yl)-2,5-diphenyltetrazolium bromide) reagent was added at 10 μL/well. […] The data shown in Table below are mean values of results obtained by repeating the analysis twice. Specifically, K562 and MCF7 (Bio Evaluation Center, Korea Research Institute of Bioscience and Biotechnology, Korea) and multidrug-resistant cell lines of each of these cell lines, i.e., K562/ADR and MCF7/ADR (Bio Evaluation Center, Korea Research Institute of Bioscience and Biotechnology, Korea), were cultured on microtiter plates (1-3×10^3 cells/well). […] The data shown in Table below are mean values of results obtained by repeating the analysis three times.

MCF7/ADR = assay: as above; type: cell-based
Description: as §3

HeLa CCL2 cells = assay: Wound healing assay; type: cell-based, human; settings: up to 100 nM, FIGS. 6A and 6B
Description: HeLa CCL2 cells were cultured in 6 wells at 100%, wounded with a yellow tip, and treated with 50 nM and 100 nM of the compound of Example 4. In order to observe the effect of the drug, the degree of cell migration was compared and observed by recording the state of the cells before treatment as images, and comparing the cell state before drug treatment with the state of the cells at 24, 36, and 48 hours post the drug treatment. The concentration of the compound of Example 4 treated with the cells was determined by performing MTT assay.

[1] = Mouse toxicity test (repeated intraperitoneal injection); type: in vivo, ICR mice; settings: for Survival rate (%): n = 3, i.p., 10 injections
Description: All animal experiments and procedures were performed in accordance with ethical standards under the approval of the Institutional Animal Care and Use Committee (IACUC) of the Korea Research Institute of Bioscience and Biotechnology (KRIBB). ICR mice were supplied by Daehan Biolink Co., Ltd (Korea). All mice were housed in sterile animal isolation facilities. All in vivo experiments were performed using 6-8 week old mice.
Acute toxicity test of the compound of Example 4 was performed at the Laboratory Animal Resource Center of the Korea Research Institute of Bioscience and Biotechnology. ICR mice (6-8 weeks old) were acclimatized for up to 10 days before the experiment, and then 3 mice were injected with the drugs. The Example compound was mixed with a solvent and injected intraperitoneally, and after drug treatment, clinical symptoms were observed twice within 24 hours, and additional drug treatment was performed up to 10 times as scheduled. The mice were weighed 5 times as scheduled.
100 mg/kg of the compound of Example 4 was dissolved in a solvent (N′,N′-dimethylacetamide/Kolliphor/2-hydroxypropyl-β-cyclodextrin (10% concentration of distilled water solution)=40:10:50). When the concentration became thicker than that, the reaction solution immediately precipitated. The solution in which the compound of Example 4 was dissolved from 12.5 mg/kg to 100 mg/kg was injected into the peritoneal cavity of mice 10 times […] in a volume of 100 μL (see FIG. 8A). All animals survived to the final day, and no particular problems were seen by visual observation (see Table 13 and FIG. 8A).

For CCOCCn1c(Cl)c(/C=N/NC(=O)c2cc3cc(C)ccc3o2)c2ccccc21 [Example 4, (E)-N′-[(2-chloro-1-(2-ethoxyethyl)-1H-indol-3-yl]methylene}-5-methylbenzofuran-2-carbohydrazide], the IC50 (A431) was 220 ± 17 nM, the IC50 (A549) was 630 ± 120 nM and the IC50 (HCT 116) was 450 ± 220 nM. For the same compound, the IC50 (K562) was 470 ± 12 nM, the IC50 (MDA-MB-468) was 690 ± 30 nM and the IC50 (NCI-H125) was 370 ± 200 nM. It also gave an IC50 (NCI-H1299) of 560 ± 150 nM, an IC50 (NCI-H226) of 420 ± 60 nM and an IC50 (PC3) of 710 ± 180 nM. The IC50 (RPMI-8226) was 520 ± 130 nM, the IC50 (SK-N-MC) was 980 ± 110 nM and the IC50 (SNU 484) was 350 ± 70 nM. The IC50 (U-2-OS) was 420 ± 60 nM, the IC50 (U373MG) was 360 ± 10 nM and the IC50 (MEF (mouse)) was 4010 ± 4580 nM. For the same compound, the IC50 (K562/ADR; Homo sapiens, 96 h, K562/ADR (multidrug-resistant), 4 days, MTT) was 201 nM, the “Resistance Factor” value (K562/ADR; ratio IC50 K562/ADR to IC50 K562) was 0.57 and the IC50 (MCF7/ADR; Homo sapiens, NCI/ADR-RES, 96 h, MCF7/ADR (multidrug-resistant), 4 days, MTT) was 332 nM. For the same compound, the “Resistance Factor” value (MCF7/ADR; ratio IC50 MCF7/ADR to IC50 MCF7) was 0.40, the “effect on cell growth” value (HeLa CCL2 cells) was “did not have a significant effect on cell growth” and the “Survival rate (%)” value ([1]; 12.5 mg/kg) was 100%. The “Survival rate (%)” value ([1]; 25 mg/kg) was 100%, the “Survival rate (%)” value ([1]; 50 mg/kg) was 100% and the “Survival rate (%)” value ([1]; 100 mg/kg) was 100%. The “toxicity on dissection (size and morphology of each organ)” value ([1]; intraperitoneally 10 times at 100 mg/kg) was “did not induce serious toxicity”.

From US12612389B2, “Benzofuran-based N-acylhydrazone derivative and pharmaceutical composition comprising same” (KOREA RESEARCH INSTITUTE OF BIOSCIENCE AND BIOTECHNOLOGY, priority 2019, dated 2026)
